Our source for the Activity values is ChEMBL document CHEMBL5532761, “Rosavin improves insulin resistance and alleviates hepatic and kidney damage via modulating the cGAS-STING pathway and autophagy signaling in HFD/STZ-induced T2DM animals” (2024).

Activity calls are given as the source filed them. The calls are words filed in the database; no cut-off is given here.

For assay [1], the system named is Rattus norvegicus. Put plainly: Antidiabetic activity in high fat diet-STZ induced diabetic Wistar rat model assessed as reduction in inflammatory cell infiltrates in liver at 30 mg/kg, ip pretreated with high fat diet for 4 weeks followed by 8 hrs fasting after STZ administration and measured 4 weeks after compound treatment by hematoxylin and eosin staining based microscopic analysis. The format is functional, organism-based.

Assay [2] deals with Rattus norvegicus. Put plainly: Antidiabetic activity in high fat diet-STZ induced diabetic Wistar rat model assessed as HDL-cholesterol level at 10 mg/kg, ip pretreated with high fat diet for 4 weeks followed by 8 hrs fasting after STZ administration and measured 4 weeks after compound treatment (reference value: 0.688 +/- 0.288 mmol/L). In kind it is functional.
Assay [3] relates to Rattus norvegicus. The experiment in a line: Antidiabetic activity in high fat diet-STZ induced diabetic Wistar rat model assessed as HOMA-IR level at 10 mg/kg, ip pretreated with high fat diet for 4 weeks followed by 8 hrs fasting after STZ administration and measured 4 weeks after compound treatment (reference value: 21.51 +/- 2.17). The format is functional.
Assay [4] concerns Rattus norvegicus. The experiment in a line: Antidiabetic activity in high fat diet-STZ induced diabetic Wistar rat model assessed as AST level at 10 mg/kg, ip pretreated with high fat diet for 4 weeks followed by 8 hrs fasting after STZ administration and measured 4 weeks after compound treatment (reference value: 136.3 +/- 22.8 IU/L). The format is functional.
Assay [5] has as its system Rattus norvegicus. Put plainly: Antidiabetic activity in high fat diet-STZ induced diabetic Wistar rat model assessed as urine albumin to creatinine ratio at 30 mg/kg, ip pretreated with high fat diet for 4 weeks followed by 8 hrs fasting after STZ administration and measured 4 weeks after compound treatment (reference value: 87.13 +/- 9.75 mg/g). The format is functional.

Assay [6] concerns Rattus norvegicus. The experiment in a line: Antidiabetic activity in high fat diet-STZ induced diabetic Wistar rat model assessed as mean area percentage of LC3B in kidney at 10 mg/kg, ip pretreated with high fat diet for 4 weeks followed by 8 hrs fasting after STZ administration and measured after 4 weeks of compound treatment by immunohistochemistry based microscopic analysis (reference value: 2.47 +/- 0.356 %). In kind it is functional.

The subject of assay [7] is Rattus norvegicus. Put plainly: Antidiabetic activity in high fat diet-STZ induced diabetic Wistar rat model assessed as HDL-cholesterol level at 30 mg/kg, ip pretreated with high fat diet for 4 weeks followed by 8 hrs fasting after STZ administration and measured 4 weeks after compound treatment (reference value: 0.688 +/- 0.288 mmol/L). The format is functional.
Assay [8] concerns Rattus norvegicus. Put plainly: Antidiabetic activity in high fat diet-STZ induced diabetic Wistar rat model assessed as mean area percentage of TNF alpha in liver at 30 mg/kg, ip pretreated with high fat diet for 4 weeks followed by 8 hrs fasting after STZ administration and measured after 4 weeks of compound treatment by immunohistochemistry based microscopic analysis (reference value: 18.28 +/- 1.31 %). The format is functional.

The test system of assay [9] is Rattus norvegicus. Put plainly: Antidiabetic activity in high fat diet-STZ induced diabetic Wistar rat model assessed as AST level at 30 mg/kg, ip pretreated with high fat diet for 4 weeks followed by 8 hrs fasting after STZ administration and measured 4 weeks after compound treatment (reference value: 136.3 +/- 22.8 IU/L). The format is functional.
The subject of assay [10] is Rattus norvegicus. The experiment in a line: Antidiabetic activity in high fat diet-STZ induced diabetic Wistar rat model assessed as reduction in abnormal infiltrates in liver at 20 mg/kg, ip pretreated with high fat diet for 4 weeks followed by 8 hrs fasting after STZ administration and measured 4 weeks after compound treatment by hematoxylin and eosin staining based microscopic analysis. In kind it is functional, organism-based.

For assay [11], the system named is Rattus norvegicus. Put plainly: Antidiabetic activity in high fat diet-STZ induced diabetic Wistar rat model assessed as cholesterol level at 10 mg/kg, ip pretreated with high fat diet for 4 weeks followed by 8 hrs fasting after STZ administration and measured 4 weeks after compound treatment (reference value: 10.39 +/- 1.3 mmol/L). In kind it is functional.
Assay [12] deals with Rattus norvegicus. Put plainly: Antidiabetic activity in high fat diet-STZ induced diabetic Wistar rat model assessed as intact tubular segments in kidney at 20 to 30 mg/kg, ip pretreated with high fat diet for 4 weeks followed by 8 hrs fasting after STZ administration and measured 4 weeks after compound treatment by hematoxylin and eosin staining based microscopic analysis. In kind it is functional, organism-based. To be noted: dose 20-30 mg/kg.

For assay [13], the system named is Rattus norvegicus. Put plainly: Antidiabetic activity in high fat diet-STZ induced diabetic Wistar rat model assessed as reduction in luminal exfoliation of epithelial cells in kidney at 30 mg/kg, ip pretreated with high fat diet for 4 weeks followed by 8 hrs fasting after STZ administration and measured 4 weeks after compound treatment by hematoxylin and eosin staining based microscopic analysis. The format is functional, organism-based.

Assay [14] has as its system Rattus norvegicus. Put plainly: Antidiabetic activity in high fat diet-STZ induced diabetic Wistar rat model assessed as protection against periportal mononuclear inflammatory cell infiltration in liver at 10 mg/kg, ip pretreated with high fat diet for 4 weeks followed by 8 hrs fasting after STZ administration and measured 4 weeks after compound treatment by hematoxylin and eosin staining based microscopic analysis. The format is functional, organism-based.

Assay [15] relates to Rattus norvegicus. Put plainly: Antidiabetic activity in high fat diet-STZ induced diabetic Wistar rat model assessed as AST level at 20 mg/kg, ip pretreated with high fat diet for 4 weeks followed by 8 hrs fasting after STZ administration and measured 4 weeks after compound treatment (reference value: 136.3 +/- 22.8 IU/L). The format is functional.
The subject of assay [16] is Rattus norvegicus. Put plainly: Antidiabetic activity in high fat diet-STZ induced diabetic Wistar rat model assessed as reduction in focal necrotic lesions in liver at 20 mg/kg, ip pretreated with high fat diet for 4 weeks followed by 8 hrs fasting after STZ administration and measured 4 weeks after compound treatment by hematoxylin and eosin staining based microscopic analysis. The format is functional, organism-based.

For assay [17], the system named is Rattus norvegicus. The experiment in a line: Antidiabetic activity in high fat diet-STZ induced diabetic Wistar rat model assessed as creatinine level at 20 mg/kg, ip pretreated with high fat diet for 4 weeks followed by 8 hrs fasting after STZ administration and measured 4 weeks after compound treatment (reference value: 3.88 +/- 0.502 mg%). In kind it is functional.

The test system of assay [18] is Rattus norvegicus. The experiment in a line: Antidiabetic activity in ip dosed high fat diet-STZ induced diabetic Wistar rat model assessed as reduction of DDX58 mRNA expression in liver pretreated with high fat diet for 4 weeks followed by 8 hrs fasting after STZ administration and measured 4 weeks after compound treatment by RT-qPCR analysis. In kind it is functional, organism-based. To be noted: dose 10-30 mg/kg. On the technique in general: In qPCR the cycle at which signal appears reflects the starting amount.

In assay [19] the test system is Rattus norvegicus. Put plainly: Antidiabetic activity in high fat diet-STZ induced diabetic Wistar rat model assessed as creatinine level at 10 mg/kg, ip pretreated with high fat diet for 4 weeks followed by 8 hrs fasting after STZ administration and measured 4 weeks after compound treatment (reference value: 3.88 +/- 0.502 mg%). The format is functional.
The test system of assay [20] is Rattus norvegicus. Put plainly: Antidiabetic activity in high fat diet-STZ induced diabetic Wistar rat model assessed as mean area percentage of LC3B in liver at 20 mg/kg, ip pretreated with high fat diet for 4 weeks followed by 8 hrs fasting after STZ administration and measured after 4 weeks of compound treatment by immunohistochemistry based microscopic analysis (reference value: 0.742 +/- 0.143 %). The format is functional.

With `O[C@@H]1[C@@H](O)[C@H](OC/C=C/c2ccccc2)O[C@H](CO[C@@H]2OC[C@H](O)[C@H](O)[C@H]2O)[C@H]1O`, the result in [1], in assay [10], in assay [12], in assay [13] and in assay [16] was Active. Besides, the Activity in assay [2] turned out to be 0.916 mmol/L; in [3], 7.81; in [4] it was 83.63 IU/L; in [5] it was 20.88 mg/g; in assay [6], 8.6%; in assay [7], 1.39 mmol/L. For the same molecule, the Activity in assay [8] is 3.52%; in assay [9], 30.25 IU/L; in assay [11], 6.09 mmol/L; in assay [15], 54.5 IU/L; in [17], 1.51 mg%; in assay [18], “Dose-Dependent Effect”. The figures for the Activity in assay [19] and in assay [20] were 2.12 mg% and 2.35%, respectively. In addition, the result in assay [14] was inactive.
